# Results: patent US20240132931A1, “Biological Indicator with Enhanced Volatile Organic Compound Detection” (O&M Halyard, Inc., priority 2022, published 2024)
# How the values were obtained:
# [1] = tested on: Geobacillus stearothermophilus spores; test: VOC production (SPME, GC-MS) during the first 20 minutes of spore germination, growth medium with or without additive (Example 1); type: cell-based
# Description: Spore suspension of Geobacillus stearothermophilus (1×10^6 CFU/0.1 mL) were diluted to reach a concentration of 500-800 CFU/30-50 μL after being heat shock for 15 min at 95-99° C. to kill all vegetative cell that might have been present in the suspension.
# A modified soybean casein digest broth was diluted (10×) with HPLC grade water and sterilize by filtration 0.45 μm to limit the amount of VOC in the background. was used with or without the addition of an additive.
# For the VOC testing, 0.5 mL of the sterile diluted growth medium was transferred in each VOC collection vials. The vials were prewarm at 60° C. for at least 10 minutes. Before starting the VOC sampling, the additive was added to the vials, then the spores according to Table 1 in function of the test to be performed. The VOC were sampled by inserting the SPME fiber into the vial as soon as the spores were added, and the vials were put back in the temperature control systems. The SPME fiber use was an assembly Divinylbenzene/Carboxen/Polydimethylsiloxane (DVB/CAR/PDMS) (Sigma Aldrich—product number 57328-U from Supelco) conditioned at 270° C. for 30 minutes before use. The SPME fibers were removed 20 minutes after the addition of the spores and were analyzed using the GC-MS according to the lab protocols for the apparatus.
# [2] = tested on: Geobacillus stearothermophilus spores; test: VOC production (SPME, GC-MS) during the first 15 minutes of spore germination, growth medium with L-threonine or glucose (Example 2); type: cell-based
# Description: Spore suspension of Geobacillus stearothermophilus (1×10^6 CFU/0.1 mL) were heated for 30 min at 99-100° C. to kill all vegetative cell that might have been present in the suspension.
# A growth medium composed of a modified soybean casein digest broth diluted (200×) with the sterilized germination medium (1,0 mM L-valine in 10 mM sodium phosphate buffer (pH 8.0) as described by “thou T, Dong Z, Setlow P, Li Y-q (2013), Kinetics of Germination of Individual Spores of Geobacillus stearothermophilus as Measured by Raman Spectroscopy and Differential Interference Contrast Microscopy. PLoS ONE 8(9): e74987)” was used with or without the addition of L-threonine or glucose at 5 mM. One test was also performed with the germination medium by itself, without the modified soybean casein digest broth diluted (200×) and the additives. The controls included the SPME fiber alone, in the presence of 2500 μg methanol, and growth medium with and without the L-Threonine or glucose.
# For the VOC testing, 0.5 mL of the control solution (methanol) or sterile growth medium was transferred in each VOC collection vials. The vials were prewarm at 65° C. for at least 10 minutes. […] The SPME fibers were removed 15 minutes after the addition of the spores and were analyzed using the GC-MS according to the lab protocols for the apparatus.
# [3] = GM + spores (about 500-800 CFU) + additive 5 mM, 60° C., 20 minutes
Compound,"Detection of 1-Nonene, Nonane, 1-Octene, Octane, Heptane ([1]; Example 1)",Propene concentration change from the presence of the additive ([1]; Example 1),"1-butanol intensity in comparison to the growth medium intensity [1, 3]","Acetaldehyde intensity in comparison to the growth medium intensity [1, 3]","Formaldehyde intensity in comparison to the growth medium intensity [1, 3]","Nonanal Octanal Heptanal intensity in comparison to the growth medium intensity [1, 3]",Formation of common VOC such as 1-nonene ([2]; Example 2),"Butanal produced (qualitative amount) ([2]; GM + 5 mM additive + 5000-10000 spores, 65° C., 15 minutes)"
"CO[C@H]1O[C@H](CO)[C@@H](O)[C@H](O)[C@H]1O [Additive, Methyl alpha-D-glucopyranoside]",detected only in the presence of the additive,not increasing,(+up to 3X),to 2X,(+10X),(up to 3X),–,–
C[C@@H](O)[C@H](N)C(=O)O [L-threonine],–,–,–,–,–,–,leads to the formation,<control
